In publication PMC6516726 (ACS Catalysis, 2018):
Like-named read-outs stand apart in the source and are kept apart here.

Assays:
WT PETNR [1] = biological target: T1, WT PETNR (Enterobacter cloacae, UniProt P71278); experiment: pH dependence of FMN reduction of WT PETNR in MTEN buffer; format: biochemical, Enterobacter Cloacae PB2; parameters: made in house; conditions: for Isotope effect on ΔCp⧧ / Isotope effect on ΔHT0⧧ / Isotope effect on ΔST0⧧: (R)-[4-2H]-NADPH - NADPH
Protocol: (R)-[4-2H]-NADPH at pH 6, pH 7 and pH9 (A) and the corresponding temperature dependencies of the observed primary kinetic isotope effects (B). The measurements were performed in MTEN buffer (50 mM MES, 25 mM Tris, 25 mM ethanola-mine, and 100 mM NaCl), which has a useful buffering capacity and minimal change in ionic strength over the pH range 6-9 in which PETNR is stable; we attempted testing PETNR in pH 5 as well, but the enzyme is unstable at this pH. The observed rate constants of FMN reduction at pH 7 in MTEN buffer are essentially the same to those measured in 50 mM potassium phosphate buffer, pH 7 and similar observation are valid for the KIEs values (Table S3).The rate of FMN reduction is essentially insensitive to pH across the whole temperature range (5-40 °C), and also that KIEs values are essentially not affected by changes in pH (the rate of FMN reduction by (R)-[4-2H]-NADPH is independent of pH as well across all temperatures studied; see Table S3 for extracted thermodynamic parameters). Although these experiments cannot completely exclude any kinetic […]
of H-transfer and protonation (which would lead to pH-dependent rates) which makes it very likely that the observed rate are reporting directly on the H-transfer step.
Table S3. Extracted Thermodynamic Parameters from pH Dependence Studies.
(kJ mol-1) (J mol-1 K-1) (kJ mol-1 K-1)

L25A PETNR = L25A PETNR (Enterobacter cloacae, UniProt P71278, L26A); conditions: for kobs1 / kobs2 / A2 (amplitude of kobs2 out of total absorbance change): 10 mM NADPH or 25 mM NADH, pH 7.0
Chain of L25A PETNR (P71278 entry or part of it L26A): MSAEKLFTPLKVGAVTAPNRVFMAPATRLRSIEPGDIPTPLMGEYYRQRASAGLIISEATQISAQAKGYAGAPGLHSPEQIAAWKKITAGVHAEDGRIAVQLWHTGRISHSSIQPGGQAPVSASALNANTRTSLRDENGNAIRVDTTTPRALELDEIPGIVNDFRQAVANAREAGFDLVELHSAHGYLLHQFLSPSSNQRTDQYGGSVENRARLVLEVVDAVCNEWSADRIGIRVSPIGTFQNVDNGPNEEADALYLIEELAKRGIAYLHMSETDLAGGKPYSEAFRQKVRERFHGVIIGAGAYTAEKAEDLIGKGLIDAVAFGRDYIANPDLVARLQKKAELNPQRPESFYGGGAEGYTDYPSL

L25I PETNR = L25I PETNR (Enterobacter cloacae, UniProt P71278, L26I); conditions: for kobs1 / A2 (amplitude of kobs2 out of total absorbance change) / kobs2: 10 mM NADPH or 25 mM NADH, pH 7.0
Chain of L25I PETNR (P71278 entry or part of it L26I): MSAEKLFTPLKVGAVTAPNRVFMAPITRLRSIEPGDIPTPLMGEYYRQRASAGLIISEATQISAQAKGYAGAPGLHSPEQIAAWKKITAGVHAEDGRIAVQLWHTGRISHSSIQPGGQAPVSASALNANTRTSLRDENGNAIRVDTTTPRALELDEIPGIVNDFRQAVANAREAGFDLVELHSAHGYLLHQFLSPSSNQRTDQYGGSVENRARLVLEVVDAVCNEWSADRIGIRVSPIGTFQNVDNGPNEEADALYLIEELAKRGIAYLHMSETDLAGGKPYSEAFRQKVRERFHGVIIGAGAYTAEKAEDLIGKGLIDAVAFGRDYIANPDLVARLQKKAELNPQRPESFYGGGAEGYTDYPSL

WT PETNR [2] = biological target: T1, WT PETNR; experiment: Stopped-flow FMN reduction (reductive half-reaction, hydride transfer) of WT PETNR by coenzyme; conditions: for kobs1 / A2 (amplitude of kobs2 out of total absorbance change) / kobs2: 10 mM NADPH or 25 mM NADH, pH 7.0
PETNR = biological target: PETNR; parameters: method as in earlier work; conditions: PETNR−coenzyme analogue complex; cited from earlier work
[3] = T0 = 298 K, fit of kobs1 (5–40 °C) to eq 1
[4] = deuterated minus protiated coenzyme, T0 = 298 K

T1 sequence (P71278 entry or part of it): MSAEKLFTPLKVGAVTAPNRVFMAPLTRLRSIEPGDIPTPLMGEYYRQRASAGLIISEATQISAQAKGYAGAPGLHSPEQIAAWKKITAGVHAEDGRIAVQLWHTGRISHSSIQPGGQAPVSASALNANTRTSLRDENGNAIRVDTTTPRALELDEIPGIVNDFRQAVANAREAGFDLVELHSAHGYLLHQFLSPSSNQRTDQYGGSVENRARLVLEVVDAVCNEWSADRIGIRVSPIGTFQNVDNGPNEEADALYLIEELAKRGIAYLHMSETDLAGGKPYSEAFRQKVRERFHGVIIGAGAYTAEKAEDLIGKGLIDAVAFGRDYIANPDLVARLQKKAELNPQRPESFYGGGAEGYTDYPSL

With [2H][C@@H]1C=CN([C@@H]2O[C@H](COP(=O)(O)OP(=O)(O)OC[C@H]3O[C@@H](n4cnc5c(N)ncnc54)[C@H](OP(=O)(O)O)[C@@H]3O)[C@@H](O)[C@H]2O)C=C1C(N)=O [(R)-[4-^2H]-NADPH] the “ΔCp⧧” value (WT PETNR [1]; pH 6, MTEN buffer) was -0.57 ± 0.15 kJ mol-1 K-1, the “ΔHT0⧧” value (WT PETNR [1]; pH 6, MTEN buffer) was 7.89 ± 0.22 kcal/mol and the “Isotope effect on ΔCp⧧” value (WT PETNR [1]; pH 6, MTEN buffer) was 0.01 ± 0.18 kJ mol-1 K-1. For the same compound, the “Isotope effect on ΔHT0⧧” value (WT PETNR [1]; pH 6, MTEN buffer) was 1.39 ± 0.263 kcal/mol, the “Isotope effect on ΔST0⧧” value (WT PETNR [1]; pH 6, MTEN buffer) was 3.7 ± 3.5 J mol-1 K-1 and the “ΔCp⧧” value (WT PETNR [1]; pH 7, MTEN buffer) was -0.54 ± 0.09 kJ mol-1 K-1. The “ΔHT0⧧” value (WT PETNR [1]; pH 7, MTEN buffer) was 8.27 ± 0.12 kcal/mol, the “ΔST0⧧” value (WT PETNR [1]; pH 7, MTEN buffer) was -115.0 ± 1.8 J mol-1 K-1 and the “Isotope effect on ΔCp⧧” value (WT PETNR [1]; pH 7, MTEN buffer) was 0.07 ± 0.12 kJ mol-1 K-1. For the same compound, the “Isotope effect on ΔHT0⧧” value (WT PETNR [1]; pH 7, MTEN buffer) was 1.67 ± 0.17 kcal/mol, the “Isotope effect on ΔST0⧧” value (WT PETNR [1]; pH 7, MTEN buffer) was 7.7 ± 2.4 J mol-1 K-1 and the “ΔCp⧧” value (WT PETNR [1]; pH 9, MTEN buffer) was -0.48 ± 0.07 kJ mol-1 K-1. The “ΔHT0⧧” value (WT PETNR [1]; pH 9, MTEN buffer) was 8.48 ± 0.096 kcal/mol, the “ΔST0⧧” value (WT PETNR [1]; pH 9, MTEN buffer) was -111.9 ± 1.3 J mol-1 K-1 and the “Isotope effect on ΔCp⧧” value (WT PETNR [1]; pH 9, MTEN buffer) was -0.03 ± 0.13 kJ mol-1 K-1. For the same compound, the “Isotope effect on ΔHT0⧧” value (WT PETNR [1]; pH 9, MTEN buffer) was 1.58 ± 0.19 kcal/mol, the “Isotope effect on ΔST0⧧” value (WT PETNR [1]; pH 9, MTEN buffer) was 6.7 ± 2.6 J mol-1 K-1 and the kobs1 (L25A PETNR; 5 °C) was 2.37 ± 0.01 s⁻¹. It also gave a kobs1 (L25A PETNR; 10 °C) of 3.33 ± 0.03 s⁻¹, a kobs1 (L25A PETNR; 15 °C) of 4.59 ± 0.03 s⁻¹ and a kobs1 (L25A PETNR; 20 °C) of 6.14 ± 0.04 s⁻¹. For the same compound, the kobs1 (L25A PETNR; 25 °C) was 8.01 ± 0.22 s⁻¹, the kobs2 (L25A PETNR; 25 °C) was 0.03 ± 0.03 s⁻¹ and the “A2 (amplitude of kobs2 out of total absorbance change)” value (L25A PETNR; 30 °C) was 5.83 ± 0.60%. The kobs1 (L25A PETNR; 30 °C) was 10.24 ± 0.05 s⁻¹, the kobs2 (L25A PETNR; 30 °C) was 0.16 ± 0.03 s⁻¹ and the “A2 (amplitude of kobs2 out of total absorbance change)” value (L25A PETNR; 35 °C) was 14.06 ± 0.45%. The kobs1 (L25A PETNR; 35 °C) was 11.89 ± 0.07 s⁻¹, the kobs2 (L25A PETNR; 35 °C) was 0.17 ± 0.01 s⁻¹ and the “A2 (amplitude of kobs2 out of total absorbance change)” value (L25A PETNR; 40 °C) was 31.19 ± 1.07%. The kobs1 (L25A PETNR; 40 °C) was 12.39 ± 0.22 s⁻¹, the kobs2 (L25A PETNR; 40 °C) was 0.26 ± 0.02 s⁻¹ and the “ΔCp^⧧” value (L25A PETNR; [3]) was “–0.78 ± 0.15 kJ mol^–1 K^–1”. The “ΔHT0^⧧” value (L25A PETNR; [3]) was 31.9 ± 1.1 kJ mol^–1, the “ΔST0^⧧” value (L25A PETNR; [3]) was “–120.5 ± 3.7 J mol^–1 K^–1” and the “Isotope Effect on ΔCp^⧧” value (L25A PETNR; [4]) was 0.14 ± 0.19 kJ mol^–1 K^–1. The “Isotope Effect on ΔHT0^⧧” value (L25A PETNR; [4]) was 8.6 ± 1.27 kJ mol^–1, the “Isotope Effect on ΔST0^⧧” value (L25A PETNR; [4]) was 13.3 ± 5.6 J mol^–1 K^–1 and the kobs1 (L25I PETNR; 5 °C) was 1.26 ± 0.02 s⁻¹. For the same compound, the kobs1 (L25I PETNR; 15 °C) was 2.46 ± 0.01 s⁻¹, the “A2 (amplitude of kobs2 out of total absorbance change)” value (L25I PETNR; 20 °C) was 2.63 ± 0.15% and the kobs1 (L25I PETNR; 20 °C) was 3.42 ± 0.03 s⁻¹. The kobs2 (L25I PETNR; 20 °C) was 0.19 ± 0.04 s⁻¹, the “A2 (amplitude of kobs2 out of total absorbance change)” value (L25I PETNR; 25 °C) was 3.59 ± 0.27% and the kobs1 (L25I PETNR; 25 °C) was 4.50 ± 0.02 s⁻¹. It also gave a kobs2 (L25I PETNR; 25 °C) of 0.27 ± 0.03 s⁻¹, a kobs1 (L25I PETNR; 30 °C) of 5.72 ± 0.06 s⁻¹ and a kobs2 (L25I PETNR; 30 °C) of 0.28 ± 0.01 s⁻¹. The “A2 (amplitude of kobs2 out of total absorbance change)” value (L25I PETNR; 35 °C) was 7.05 ± 0.36%, the kobs1 (L25I PETNR; 35 °C) was 7.20 ± 0.07 s⁻¹ and the kobs2 (L25I PETNR; 35 °C) was 0.42 ± 0.07 s⁻¹. For the same compound, the “A2 (amplitude of kobs2 out of total absorbance change)” value (L25I PETNR; 40 °C) was 12.46 ± 0.45%, the kobs1 (L25I PETNR; 40 °C) was 8.66 ± 0.09 s⁻¹ and the “ΔCp^⧧” value (L25I PETNR; [3]) was “–0.53 ± 0.09 kJ mol^–1 K^–1”. The “ΔHT0^⧧” value (L25I PETNR; [3]) was 36.7 ± 0.5 kJ mol^–1, the “Isotope Effect on ΔCp^⧧” value (L25I PETNR; [4]) was “–0.11 ± 0.11 kJ mol^–1 K^–1” and the “Isotope Effect on ΔHT0^⧧” value (L25I PETNR; [4]) was 6.3 ± 0.7 kJ mol^–1. The “Isotope Effect on ΔST0^⧧” value (L25I PETNR; [4]) was 5.4 ± 2.5 J mol^–1 K^–1, the kobs1 (WT PETNR [2]; 5 °C) was 1.51 ± 0.01 s⁻¹ and the kobs1 (WT PETNR [2]; 10 °C) was 2.13 ± 0.01 s⁻¹. For the same compound, the kobs1 (WT PETNR [2]; 15 °C) was 2.90 ± 0.01 s⁻¹, the kobs1 (WT PETNR [2]; 20 °C) was 3.95 ± 0.02 s⁻¹ and the kobs1 (WT PETNR [2]; 25 °C) was 5.20 ± 0.04 s⁻¹. The kobs1 (WT PETNR [2]; 30 °C) was 6.59 ± 0.04 s⁻¹, the “A2 (amplitude of kobs2 out of total absorbance change)” value (WT PETNR [2]; 35 °C) was 2.54 ± 0.53% and the kobs1 (WT PETNR [2]; 35 °C) was 8.48 ± 0.03 s⁻¹. The kobs2 (WT PETNR [2]; 35 °C) was 1.22 ± 0.45 s⁻¹, the “A2 (amplitude of kobs2 out of total absorbance change)” value (WT PETNR [2]; 40 °C) was 3.41 ± 0.65% and the kobs1 (WT PETNR [2]; 40 °C) was 9.96 ± 0.18 s⁻¹. The kobs2 (WT PETNR [2]; 40 °C) was 1.11 ± 0.24 s⁻¹, the “ΔCp^⧧” value (WT PETNR [2]; [3]) was “–0.32 ± 0.04 kJ mol^–1 K^–1” and the “ΔHT0^⧧” value (WT PETNR [2]; [3]) was 36.8 ± 0.3 kJ mol^–1. For the same compound, the “Isotope Effect on ΔCp^⧧” value (WT PETNR [2]; [4]) was 0.18 ± 0.06 kJ mol^–1 K^–1, the “Isotope Effect on ΔHT0^⧧ (ΔΔHT0^⧧)” value (WT PETNR [2]; [4]) was 6.4 ± 0.4 kJ mol^–1 and the “Isotope Effect on ΔST0^⧧” value (WT PETNR [2]; [4]) was 5.8 ± 1.5 J mol^–1 K^–1.
For NC(=O)C1=CN([C@@H]2O[C@H](COP(=O)(O)OP(=O)(O)OC[C@H]3O[C@@H](n4cnc5c(N)ncnc54)[C@H](O)[C@@H]3O)[C@@H](O)[C@H]2O)CCC1 [NADH4, 1,4,5,6-tetrahydro-NAD], the Kd (PETNR) is given as 140 µM.
